Experimental data published in the kinase profiling compilation of Christmann-Franck et al. (2016).

Legend:
Experiment in all cases: KINOMEscan competition binding
Settings in all cases: compound 10.0 µM
[1] = molecular target: CDK3 (human) (UniProt Q00526)
[2] = molecular target: FGFR4 (human) (UniProt P22455)
[3] = molecular target: ULK3 (human) (UniProt Q6PHR2)
[4] = molecular target: CLK2 (human) (UniProt P49760)
[5] = molecular target: STK10 (human) (UniProt O94804)
[6] = molecular target: ULK2 (human) (UniProt Q8IYT8)
[7] = molecular target: PRKACB (human) (UniProt P22694)
[8] = molecular target: RIPK2 (human) (UniProt O43353)
Sequence of RIPK2 (human) (O43353 whole entry, looked up): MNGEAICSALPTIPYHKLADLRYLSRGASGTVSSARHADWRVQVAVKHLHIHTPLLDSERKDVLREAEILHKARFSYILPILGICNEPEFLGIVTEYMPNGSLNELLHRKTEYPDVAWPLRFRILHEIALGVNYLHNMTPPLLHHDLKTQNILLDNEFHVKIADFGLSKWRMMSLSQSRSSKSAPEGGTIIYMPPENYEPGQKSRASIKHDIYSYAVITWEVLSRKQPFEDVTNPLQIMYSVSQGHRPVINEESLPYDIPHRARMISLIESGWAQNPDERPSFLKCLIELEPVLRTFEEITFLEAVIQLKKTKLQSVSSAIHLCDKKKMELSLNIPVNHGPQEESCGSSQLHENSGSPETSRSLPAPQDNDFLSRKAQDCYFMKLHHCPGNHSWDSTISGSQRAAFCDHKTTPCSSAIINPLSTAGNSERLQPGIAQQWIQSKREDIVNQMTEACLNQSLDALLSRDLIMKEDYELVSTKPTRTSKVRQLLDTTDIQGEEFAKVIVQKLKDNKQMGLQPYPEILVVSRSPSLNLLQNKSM

[9] = molecular target: CIT (human) (UniProt O14578)
[10] = molecular target: FLT4 (human) (UniProt P35916)
[11] = molecular target: CDKL2 (human) (UniProt Q92772)
[12] = molecular target: BMPR1A (human) (UniProt P36894)
[13] = molecular target: CAMK2B (human) (UniProt Q13554)
[14] = molecular target: NEK2 (human) (UniProt P51955)
[15] = molecular target: CDK5 (human) (UniProt Q00535)
Sequence of CDK5 (human) (Q00535 whole entry, looked up): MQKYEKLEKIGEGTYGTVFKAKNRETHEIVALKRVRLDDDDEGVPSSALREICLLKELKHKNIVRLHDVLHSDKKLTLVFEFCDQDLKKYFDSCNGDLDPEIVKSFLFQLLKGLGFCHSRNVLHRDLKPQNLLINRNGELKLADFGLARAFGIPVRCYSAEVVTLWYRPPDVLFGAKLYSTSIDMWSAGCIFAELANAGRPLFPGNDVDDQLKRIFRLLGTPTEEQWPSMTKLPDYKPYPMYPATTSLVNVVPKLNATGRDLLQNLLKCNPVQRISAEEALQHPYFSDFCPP

[16] = molecular target: EPHB1 (human) (UniProt P54762)
[17] = molecular target: PIM1 (human) (UniProt P11309)
Sequence of PIM1 (human) (P11309 whole entry, looked up): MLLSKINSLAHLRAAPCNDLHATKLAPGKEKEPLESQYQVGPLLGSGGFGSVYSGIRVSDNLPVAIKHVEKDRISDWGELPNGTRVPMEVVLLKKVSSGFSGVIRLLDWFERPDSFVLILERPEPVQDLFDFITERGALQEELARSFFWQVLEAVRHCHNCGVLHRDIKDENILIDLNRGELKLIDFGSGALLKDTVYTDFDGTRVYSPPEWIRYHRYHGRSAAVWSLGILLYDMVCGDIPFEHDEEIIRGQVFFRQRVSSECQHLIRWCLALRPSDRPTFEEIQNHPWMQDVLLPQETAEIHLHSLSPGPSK

[18] = molecular target: TSSK1B (human) (UniProt Q9BXA7)
Sequence of TSSK1B (human) (Q9BXA7 whole entry, looked up): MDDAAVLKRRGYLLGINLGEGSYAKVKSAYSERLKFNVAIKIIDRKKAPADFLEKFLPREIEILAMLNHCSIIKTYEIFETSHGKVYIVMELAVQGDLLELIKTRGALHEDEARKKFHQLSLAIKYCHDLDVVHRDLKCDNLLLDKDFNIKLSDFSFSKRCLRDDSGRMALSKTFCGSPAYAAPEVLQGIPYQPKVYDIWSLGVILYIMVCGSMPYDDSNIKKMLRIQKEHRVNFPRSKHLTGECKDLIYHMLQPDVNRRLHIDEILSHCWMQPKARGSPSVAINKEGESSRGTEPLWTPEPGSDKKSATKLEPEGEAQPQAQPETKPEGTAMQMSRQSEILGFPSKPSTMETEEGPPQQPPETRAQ

[19] = molecular target: RPS6KA3 KD1 (human) (UniProt P51812)
[20] = molecular target: NEK1 (human) (UniProt Q96PY6)
[21] = molecular target: GAK (human) (UniProt O14976)
Sequence of GAK (human) (O14976 whole entry, looked up): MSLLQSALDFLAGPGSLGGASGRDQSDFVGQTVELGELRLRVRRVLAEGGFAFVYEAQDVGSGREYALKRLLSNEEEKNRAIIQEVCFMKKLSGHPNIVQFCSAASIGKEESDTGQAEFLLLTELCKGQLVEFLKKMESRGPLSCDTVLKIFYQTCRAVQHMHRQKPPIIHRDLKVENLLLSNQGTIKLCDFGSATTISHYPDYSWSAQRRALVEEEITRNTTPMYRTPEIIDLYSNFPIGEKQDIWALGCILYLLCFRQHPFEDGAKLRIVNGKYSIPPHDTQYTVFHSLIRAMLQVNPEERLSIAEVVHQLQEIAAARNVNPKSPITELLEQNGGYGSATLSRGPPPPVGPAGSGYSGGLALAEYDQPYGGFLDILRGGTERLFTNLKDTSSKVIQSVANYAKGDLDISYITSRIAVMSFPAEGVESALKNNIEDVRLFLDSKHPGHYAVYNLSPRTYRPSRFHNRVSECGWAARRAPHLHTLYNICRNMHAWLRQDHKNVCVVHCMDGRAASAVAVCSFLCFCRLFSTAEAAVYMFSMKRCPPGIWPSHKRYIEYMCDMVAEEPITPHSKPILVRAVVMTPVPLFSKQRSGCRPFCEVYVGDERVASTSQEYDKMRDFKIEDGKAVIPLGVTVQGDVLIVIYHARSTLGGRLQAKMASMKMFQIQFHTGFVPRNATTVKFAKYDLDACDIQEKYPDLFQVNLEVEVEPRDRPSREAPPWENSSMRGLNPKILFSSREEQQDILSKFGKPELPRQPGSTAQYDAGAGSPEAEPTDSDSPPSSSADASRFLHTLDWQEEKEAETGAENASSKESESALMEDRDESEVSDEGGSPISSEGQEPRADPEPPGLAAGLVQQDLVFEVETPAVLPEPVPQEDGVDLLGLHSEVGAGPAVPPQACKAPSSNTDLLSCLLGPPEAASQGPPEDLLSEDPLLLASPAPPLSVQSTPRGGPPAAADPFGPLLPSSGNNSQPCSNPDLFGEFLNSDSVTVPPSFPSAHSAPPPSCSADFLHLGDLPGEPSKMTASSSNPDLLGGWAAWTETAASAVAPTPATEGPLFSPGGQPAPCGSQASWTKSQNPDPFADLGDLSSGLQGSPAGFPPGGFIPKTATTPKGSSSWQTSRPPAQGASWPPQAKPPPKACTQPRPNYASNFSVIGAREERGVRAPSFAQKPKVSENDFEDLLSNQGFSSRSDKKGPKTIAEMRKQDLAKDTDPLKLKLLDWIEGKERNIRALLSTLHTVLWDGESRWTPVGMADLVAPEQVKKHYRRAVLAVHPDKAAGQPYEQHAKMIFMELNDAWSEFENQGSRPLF

[22] = molecular target: CAMK4 (human) (UniProt Q16566)
[23] = molecular target: MAPKAPK2 (human) (UniProt P49137)
[24] = molecular target: STK25 (human) (UniProt O00506)
[25] = molecular target: MAP4K2 (human) (UniProt Q12851)
[26] = molecular target: NEK6 (human) (UniProt Q9HC98)
[27] = molecular target: CDC42BPG (human) (UniProt Q6DT37)
[28] = molecular target: CLK3 (human) (UniProt P49761)
[29] = molecular target: ADCK3 (human) (UniProt Q8NI60)
[30] = molecular target: CDC2L2 (human) (UniProt Q9UQ88)
[31] = molecular target: TAOK1 (human) (UniProt Q7L7X3)
[32] = molecular target: SIK1 (human) (UniProt P57059)
[33] = molecular target: LATS2 (human) (UniProt Q9NRM7)
[34] = molecular target: TNNI3K (human) (UniProt Q59H18)
[35] = molecular target: CSNK1E (human) (UniProt P49674)
Sequence of CSNK1E (human) (P49674 whole entry, looked up): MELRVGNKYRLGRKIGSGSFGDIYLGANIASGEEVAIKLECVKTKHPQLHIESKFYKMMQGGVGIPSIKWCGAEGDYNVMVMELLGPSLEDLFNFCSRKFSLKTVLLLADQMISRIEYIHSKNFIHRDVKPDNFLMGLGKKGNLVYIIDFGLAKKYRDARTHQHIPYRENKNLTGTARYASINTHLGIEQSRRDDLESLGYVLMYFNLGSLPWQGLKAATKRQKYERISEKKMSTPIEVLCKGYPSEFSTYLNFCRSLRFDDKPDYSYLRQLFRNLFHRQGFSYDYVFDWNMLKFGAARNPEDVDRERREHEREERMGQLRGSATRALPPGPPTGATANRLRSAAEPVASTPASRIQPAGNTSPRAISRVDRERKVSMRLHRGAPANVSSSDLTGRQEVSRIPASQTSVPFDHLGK

[36] = molecular target: FES (human) (UniProt P07332)
[37] = molecular target: RIPK4 (human) (UniProt P57078)
[38] = molecular target: TNIK (human) (UniProt Q9UKE5)
Sequence of TNIK (human) (Q9UKE5 whole entry, looked up): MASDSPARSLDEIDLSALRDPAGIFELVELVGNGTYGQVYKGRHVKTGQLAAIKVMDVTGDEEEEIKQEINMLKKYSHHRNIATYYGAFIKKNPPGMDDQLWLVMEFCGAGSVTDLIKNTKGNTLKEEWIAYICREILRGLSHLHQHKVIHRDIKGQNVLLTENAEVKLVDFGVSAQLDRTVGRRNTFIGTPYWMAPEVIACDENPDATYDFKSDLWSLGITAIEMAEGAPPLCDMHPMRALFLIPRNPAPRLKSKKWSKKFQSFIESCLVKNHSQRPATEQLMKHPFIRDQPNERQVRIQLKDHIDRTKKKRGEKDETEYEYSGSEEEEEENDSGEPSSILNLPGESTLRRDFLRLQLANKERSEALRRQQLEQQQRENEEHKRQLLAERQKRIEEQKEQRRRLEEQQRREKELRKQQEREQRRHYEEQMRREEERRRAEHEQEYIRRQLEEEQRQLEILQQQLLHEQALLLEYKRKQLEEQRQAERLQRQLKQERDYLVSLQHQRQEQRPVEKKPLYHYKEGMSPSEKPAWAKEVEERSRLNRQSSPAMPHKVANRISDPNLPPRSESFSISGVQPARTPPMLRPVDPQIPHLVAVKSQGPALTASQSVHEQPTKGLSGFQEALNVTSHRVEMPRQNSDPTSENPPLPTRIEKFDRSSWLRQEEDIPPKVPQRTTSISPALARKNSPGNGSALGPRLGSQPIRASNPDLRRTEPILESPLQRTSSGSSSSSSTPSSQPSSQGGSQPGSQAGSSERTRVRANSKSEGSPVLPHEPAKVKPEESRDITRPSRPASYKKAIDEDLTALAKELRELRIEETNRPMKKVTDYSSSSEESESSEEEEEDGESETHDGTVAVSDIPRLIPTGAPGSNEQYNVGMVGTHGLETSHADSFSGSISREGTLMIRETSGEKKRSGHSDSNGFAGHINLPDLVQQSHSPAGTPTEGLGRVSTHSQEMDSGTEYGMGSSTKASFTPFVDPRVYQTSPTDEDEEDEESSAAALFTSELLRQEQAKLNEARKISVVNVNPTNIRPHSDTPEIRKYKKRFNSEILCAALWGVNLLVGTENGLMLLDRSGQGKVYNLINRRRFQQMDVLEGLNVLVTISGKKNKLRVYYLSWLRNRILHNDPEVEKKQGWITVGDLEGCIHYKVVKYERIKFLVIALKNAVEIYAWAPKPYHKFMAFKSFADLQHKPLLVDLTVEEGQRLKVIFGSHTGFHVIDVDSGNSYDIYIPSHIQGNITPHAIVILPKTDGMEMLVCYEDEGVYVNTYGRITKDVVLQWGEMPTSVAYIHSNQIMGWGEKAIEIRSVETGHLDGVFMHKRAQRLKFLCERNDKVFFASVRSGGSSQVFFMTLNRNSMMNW

[39] = molecular target: RPS6KA6 KD2 (human) (UniProt Q9UK32)
[40] = molecular target: CHEK1 (human) (UniProt O14757)

Sequence of CDK3 (human) (Q00526 whole entry, looked up): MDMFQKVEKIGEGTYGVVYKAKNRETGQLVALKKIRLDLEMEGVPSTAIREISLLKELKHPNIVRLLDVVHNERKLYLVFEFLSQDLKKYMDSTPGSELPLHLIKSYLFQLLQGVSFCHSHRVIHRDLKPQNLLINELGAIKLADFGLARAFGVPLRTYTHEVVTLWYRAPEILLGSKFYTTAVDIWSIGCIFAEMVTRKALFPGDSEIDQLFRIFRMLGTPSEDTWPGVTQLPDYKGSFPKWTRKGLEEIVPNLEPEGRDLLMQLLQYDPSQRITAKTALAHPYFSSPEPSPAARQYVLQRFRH

Cc1cc([C@@H](C)Nc2ccccc2C(=O)O)c2nc(N3CCOCC3)cc(=O)n2c1
kinase still bound, per cent of control [1]: 100%
kinase still bound, per cent of control [2]: 100%
kinase still bound, per cent of control [3]: 98%
kinase still bound, per cent of control [4]: 70%
kinase still bound, per cent of control [5]: 100%
kinase still bound, per cent of control [6]: 100%
kinase still bound, per cent of control [7]: 100%
kinase still bound, per cent of control [8]: 94%
kinase still bound, per cent of control [9]: 89%
kinase still bound, per cent of control [10]: 95%
kinase still bound, per cent of control [11]: 91%
kinase still bound, per cent of control [12]: 97%
kinase still bound, per cent of control [13]: 83%
kinase still bound, per cent of control [14]: 71%
kinase still bound, per cent of control [15]: 100%
kinase still bound, per cent of control [16]: 98%
kinase still bound, per cent of control [17]: 100%
kinase still bound, per cent of control [18]: 100%
kinase still bound, per cent of control [19]: 91%
kinase still bound, per cent of control [20]: 85%
kinase still bound, per cent of control [21]: 75%
kinase still bound, per cent of control [22]: 100%
kinase still bound, per cent of control [23]: 66%
kinase still bound, per cent of control [24]: 76%
kinase still bound, per cent of control [25]: 56%
kinase still bound, per cent of control [26]: 100%
kinase still bound, per cent of control [27]: 100%
kinase still bound, per cent of control [28]: 100%
kinase still bound, per cent of control [29]: 86%
kinase still bound, per cent of control [30]: 100%
kinase still bound, per cent of control [31]: 59%
kinase still bound, per cent of control [32]: 100%
kinase still bound, per cent of control [33]: 63%
kinase still bound, per cent of control [34]: 88%
kinase still bound, per cent of control [35]: 98%
kinase still bound, per cent of control [36]: 94%
kinase still bound, per cent of control [37]: 99%
kinase still bound, per cent of control [38]: 98%
kinase still bound, per cent of control [39]: 100%
kinase still bound, per cent of control [40]: 100%

Cc1ccc(NC(=O)c2cccc(C(C)(C)C#N)c2)cc1Nc1ccc2ncn(C)c(=O)c2c1
kinase still bound, per cent of control [1]: 100%
kinase still bound, per cent of control [2]: 100%
kinase still bound, per cent of control [3]: 97%
kinase still bound, per cent of control [4]: 100%
kinase still bound, per cent of control [5]: 0.1%
kinase still bound, per cent of control [6]: 100%
kinase still bound, per cent of control [7]: 100%
kinase still bound, per cent of control [8]: 7%
kinase still bound, per cent of control [9]: 0.05%
kinase still bound, per cent of control [10]: 0.15%
kinase still bound, per cent of control [11]: 85%
kinase still bound, per cent of control [12]: 100%
kinase still bound, per cent of control [13]: 100%
kinase still bound, per cent of control [14]: 100%
kinase still bound, per cent of control [15]: 100%
kinase still bound, per cent of control [16]: 1%
kinase still bound, per cent of control [17]: 100%
kinase still bound, per cent of control [18]: 79%
kinase still bound, per cent of control [19]: 90%
kinase still bound, per cent of control [20]: 100%
kinase still bound, per cent of control [21]: 99%
kinase still bound, per cent of control [22]: 100%
kinase still bound, per cent of control [23]: 100%
kinase still bound, per cent of control [24]: 100%
kinase still bound, per cent of control [25]: 62%
kinase still bound, per cent of control [26]: 100%
kinase still bound, per cent of control [27]: 98%
kinase still bound, per cent of control [28]: 100%
kinase still bound, per cent of control [29]: 100%
kinase still bound, per cent of control [30]: 5.4%
kinase still bound, per cent of control [31]: 91%
kinase still bound, per cent of control [32]: 30%
kinase still bound, per cent of control [33]: 99%
kinase still bound, per cent of control [34]: 15%
kinase still bound, per cent of control [35]: 100%
kinase still bound, per cent of control [36]: 43%
kinase still bound, per cent of control [37]: 98%
kinase still bound, per cent of control [38]: 3.4%
kinase still bound, per cent of control [39]: 3.5%
kinase still bound, per cent of control [40]: 84%

CCN1CCN(Cc2ccc(Nc3ncc4c(n3)N(C)c3ccccc3C(=O)N4C)cc2C(F)(F)F)CC1
kinase still bound, per cent of control [1]: 100%
kinase still bound, per cent of control [2]: 36%
kinase still bound, per cent of control [3]: 7.4%
kinase still bound, per cent of control [4]: 39%
kinase still bound, per cent of control [5]: 28%
kinase still bound, per cent of control [6]: 0%
kinase still bound, per cent of control [7]: 100%
kinase still bound, per cent of control [8]: 6.4%
kinase still bound, per cent of control [9]: 99%
kinase still bound, per cent of control [10]: 100%
kinase still bound, per cent of control [11]: 80%
kinase still bound, per cent of control [12]: 8.2%
kinase still bound, per cent of control [13]: 58%
kinase still bound, per cent of control [14]: 100%
kinase still bound, per cent of control [15]: 84%
kinase still bound, per cent of control [16]: 100%
kinase still bound, per cent of control [17]: 86%
kinase still bound, per cent of control [18]: 49%
kinase still bound, per cent of control [19]: 28%
kinase still bound, per cent of control [20]: 66%
kinase still bound, per cent of control [21]: 12%
kinase still bound, per cent of control [22]: 100%
kinase still bound, per cent of control [23]: 100%
kinase still bound, per cent of control [24]: 47%
kinase still bound, per cent of control [25]: 17%
kinase still bound, per cent of control [26]: 64%
kinase still bound, per cent of control [27]: 92%
kinase still bound, per cent of control [28]: 92%
kinase still bound, per cent of control [29]: 78%
kinase still bound, per cent of control [30]: 97%
kinase still bound, per cent of control [31]: 0.2%
kinase still bound, per cent of control [32]: 27%
kinase still bound, per cent of control [33]: 91%
kinase still bound, per cent of control [34]: 78%
kinase still bound, per cent of control [35]: 45%
kinase still bound, per cent of control [36]: 100%
kinase still bound, per cent of control [37]: 12%
kinase still bound, per cent of control [38]: 100%
kinase still bound, per cent of control [39]: 16%
kinase still bound, per cent of control [40]: 57%
